# Entries after “also recorded” stand apart in the source; their conditions may differ.
# Assays:
# [1] = tested on: autophosphorylated CaMKIIγ in TonB210.1 cells; test: bcr-abl induced CaMKII autophosphorylation in TonB210.1 cells (Western blot); assay type: cell-based; conditions: TonB210.1 deprived of IL-3 for 24 hours, compound added with doxycycline
# K562 cells = test: K562 proliferation in liquid suspension culture (cell counts); assay type: cell-based, human; conditions: seeded at 5×10^4 cells/ml; cell counts
# Procedure: (A) K562 cells were seeded in liquid suspension culture at 5×10^4 cells/ml in the presence or absence of the indicated concentration of compounds, and cell counts were obtained at the indicated time.
# Cell lines. All leukemia cell lines are cultured at 37° in RPMI supplemented with 5% heat-inactivated fetal calf serum.
# [2] = tested on: autophosphorylated CaMKIIγ in HL60 cells; test: Western blot of CaMKIIγ autophosphorylation in HL60 cells; assay type: cell-based, human; conditions: phospho-T286/7 antibody, ATRA 1 μM, TPA 0.1 μM
# Procedure: (§1) FIG. 7. KN-62 regulates the differentiation of myeloid leukemia cell lines. (A) Wright Giemsa-stained HL-60 cells either (a) uninduced or treated for five days with (b) KN62 or (c) ATRA. (d) CD11b expression in HL-60 cells after five days exposure to KN62 (5 μM) or ATRA (1 μM). (B) Wright-Giemsa stained NB4 cells treated for five days with KN-62 (5 μM) and ATRA as indicated. […] (C) Cd11b expression of NB4 cells treated for five days with the indicated concentrations of RA and/or KN-62. (D) Western blots with the indicated antibodies were performed on HL60 cell lysates following incubation with KN62 for the indicated period of time. (E) Western blots of NB4 cell lysates following a five day incubation with the indicated compounds.
# (§2) FIG. 9. Terminal differentiation/apoptosis of myeloid leukemia cells is associated with decreased CaMKIIγ activation. (A) Lysates from the HL60, NB4 and U937 myeloid cell lines treated with ATRA (1 μM) for the indicated period of time were subjected to Western blots. (B) Lysates from the indicated myeloid cell lines treated for five days with the indicated concentration of ATRA were subjected to Western blots. (C) Lysates from HL60 cells treated with TPA (0.1 μM) for the indicated time were subjected to Western blots. (D) Lysates from NB4 cells treated with arsenic trioxide (1 uM) for the indicated time were subjected to Western blots.
# (§3) Protein extracts, Western blotting and co-immunoprecipitations. Westerns and co-immunoprecipitations were performed as previously detailed (Si, J., and Collins, S. J., Blood 100:4401-4409 (2002)).
# (§4) Antibodies and Western blots. Protein extracts, immunoprecipitations and Western blots were performed as previously detailed (Si J, Collins S J. IL-3-induced enhancement of retinoic acid receptor activity is mediated through Stat5, which physically associates with retinoic acid receptors in an IL-3-dependent manner. Blood 100: 4401-9 (2002)). Antibodies against CaMKI, CaMKIIγ, CaMKIV, c-myc, Stat3, Stat5, calmodulin, as well as the phosphospecific CaMKII (T286, 287) and phosphospecific CaMKI (T177) antibodies were from Santa Cruz Biotechnology. Antibodies against phospho-Stat1 (Ser727), phospho-Stat3 (Ser727 and Tyr 705), phospho-Stat5 (Tyr 694), phospho-p44/42 MAP kinase (Thr202/Tyr 204), p44/42 MAP kinase, phospho-p38 MAP kinase (Thr 180/Tyr 182), phospho-GSK3β (Ser9) were from Cell Signaling Technology. Antibodies against Stat1, GSK3β, β-catenin, PP2Ac, and cyclin D1 were from BD Biosciences.
# [3] = tested on: Stat3 transcriptional activity in K562 cells; test: Stat3 response element luciferase reporter in K562 cells; assay type: cell-based, human; conditions: 48 hours of culture
# Procedure: FIG. 13. Stat3 is directly phosphorylated and activated by CaMKIIγ at Ser727. (A, i). Cell lysates from the indicated human leukemia cell lines were subjected to Western blots utilizing the indicated Stat3 antibodies. ii). Cell lysates from the same primary AML samples depicted in FIG. 1B were subjected to Western blots utilizing the indicated Stat3 antibodies. B). The IL-3 dependent TonB210.1 cells were deprived of IL-3 for 24 hours. The cells were then treated with the indicated compounds immediately prior to the addition of doxycycline. After an additional 24 hours cell lysates were harvested and subjected to Western blots with the indicated Stat3 antibodies. C). K562 cells were electroporated with a luciferase reporter driven by a Stat3 response element. The indicated concentrations of KN93 and the Stat 3 inhibitor, cucurbitacin I, were added and relative luciferase activity determined on cell lysates following 48 hours of culture. D, i) K562 cell lysates were immunoprecipitated with control IgG or a Stat3 antibody. […]
# Transient transfections and luciferase assays. […] Stat3 transcriptional activity was determined in K562 cells transfected with the pSIE-tk-LUC luciferase reporter which harbors a Stat3 binding site ([…]). […]
# [4] = tested on: autophosphorylated CaMKIIγ in K562 cells; test: Western blot of CaMKIIγ autophosphorylation in K562 cells; assay type: cell-based, human; conditions: for activated, autophosphorylated CaMKIIγ level: gleevec 5 uM, ATRA five days
# Procedure: as §2
# FIG. 10. Inhibiting bcr-abl activity/expression inhibits CaMKIIγ activation. (A) Lysates from K562 cells undergoing growth arrest following treatment with gleevec (5 uM) for the indicated times were subjected to Western blots. (B) Lysates from TonB210.1 cells depleted of doxycycline for the indicated period of time were subjected to Western blots. (C) IL-3 dependent TonB210.1 cells were deprived of IL-3 for 24 hours (lane 1). The cells were then treated with the indicated compounds simultaneously with the addition of doxycycline (lanes 2-8). After 24 hours cell lysates were harvested and subjected to Western blots with the indicated CaMKII antibodies. (D) K562 cells were cultured for 48 hours with the indicated chemical inhibitors of specific signal transduction pathways. Cell lysates were harvested and subjected to Western blot analysis.
# FIG. 12. CaMKII regulates multiple signal transduction pathways in myeloid cells. (A,B) Lysates from K562 cells cultured for the indicated time in KN93 were subjected to Western blots. (C) The K562 cells transduced as described in Materials and Methods with either (i) the doxycycline (DOX) inducible expression vector/transactivator harboring the full length, Lys^43 mutated, kinase dead CaMKIIγ (kdCaMKIIγ (Tet-on)) or (ii) the CaMKII shRNA generating plasmids, were cultured in liquid suspension in the presence or absence of DOX as indicated, and cell counts obtained after 48 hours. (D) Lysates from K562 cells transduced with the indicated vectors were subjected to Western blots utilizing the indicated antibodies. For lanes 2 and 4 doxycycline (DOX) treatment was for two days.
# as §4
# [5] = tested on: RAR transcriptional activity in HL60 cells; test: RARE-driven luciferase reporter in HL60 cells; assay type: cell-based, human; conditions: six hours after treatment with ionomycin and ATRA
# Procedure: FIG. 1. CaM kinase isoform expression in hematopoietic cells. (A) The activity of an ATRA-responsive luciferase reporter (βRARE-tk-Luc, 25 μg) was assessed in electroporated HL60 cells six hours after treatment with the indicated concentrations of ionomycin and ATRA. (B) The activity of the luciferase reporter (βRARE-tk-Luc, 25 μg) was assessed in HL60 six hours after treatment with KN62 (5 uM), KN93 (5 uM) and ATRA (1 uM). (C) Western blots were performed utilizing the indicated antibodies. F9 (column 6) is a mouse embryonal carcinoma cell line. BaF3 (column 7) is a cultured pre-B cell line. BM cells (column 8) are kit-ligand dependent normal murine hematopoietic precursors. PT67 murine fibroblasts individually transduced with either rat CaMKIIα, human CaMKIα or human CaMKIV (column 9) together with brain lysates (column 1) serve as positive controls for the respective antibodies. (D) CaMK assays were performed on HL-60 cell lysates immunoprecipitated with the indicated antibodies.
# Transient transfections and luciferase assays. Murine PT67 fibroblasts were transfected utilizing calcium phosphate precipitation. All hematopoietic cell lines were transiently transfected by electroporation as previously detailed (Johnson, B. et al., Molecular and Cellular Biology 19:3372-3382 (1999)). In the transient transfections the LXSN vector (M28248) served as the expression vector for the wild type and site-directed mutagenized CaMKII and RARα coding region cDNAs. Human cDNA homologous to the coding region of rat CaMKIINα, a CaMKII inhibitory protein, was obtained by RT-PCR from HL60 RNA and cloned into the LXSN vector. The RA-responsive luciferase reporter harbors the RARE from the RARβ2 promoter as previously detailed (Si, J., and Collins, S. J., Blood 100:4401-4409 (2002)). The PON838 plasmid, a β-galactosidase reporter driven by the β-actin promoter, was used as an internal control to determine transfection efficiency for calculating relative luciferase activity.
# [6] = tested on: autophosphorylated CaMKIIγ in NB4 cells; test: Western blot of CaMKIIγ autophosphorylation in NB4 cells; assay type: cell-based, human; conditions: single agent, ATRA 1 μM, arsenic trioxide 1 uM
# Procedure: as §1, §2, §3, §4
compound,measurement,setting,value
O=C(O)c1ccc2c3c1cccc3c(=O)n1c3ccccc3nc21 [STO609],bcr-abl (tet/doxycycline) restored CaMKII autophosphorylation,[1],not inhibited
same,K562 cell proliferation,K562 cells,did not significantly inhibit; also recorded: minimal effects
"CCCCCCCCCCCCCC(=O)O[C@@H]1[C@@H](C)[C@@]2(O)[C@@H](C=C(CO)C[C@]3(O)C(=O)C(C)=C[C@@H]23)[C@@H]2C(C)(C)[C@]12OC(C)=O [TPA, phorbol myristate acetate]","activated, autophosphorylated CaMKIIγ level",[2],marked decrease
CC(C)(O)/C=C/C(=O)[C@](C)(O)[C@H]1[C@H](O)C[C@@]2(C)[C@@H]3CC=C4[C@@H](C=C(O)C(=O)C4(C)C)[C@]3(C)C(=O)C[C@]12C [cucurbitacin I],Stat3 responsive reporter activity,[3],inhibit
Cc1ccc(NC(=O)c2ccc(CN3CCN(C)CC3)cc2)cc1Nc1nccc(-c2cccnc2)n1 [imatinib],K562 cell proliferation,K562 cells,proliferative arrest
same,total CaMKIIγ level,[4],no significant change
same,"activated, autophosphorylated CaMKIIγ level",[4],"rapid, marked decrease"
same,"activated, autophosphorylated CaMKIIγ level",[4]; listed as gleevec,downregulation
C[C@H](CCC(=O)O)C[C@H](C)C[C@H](C)C(=O)/C=C(\O)[C@H](C)C[C@H](C)C/C=C/[C@@H](C)[C@@H](O)[C@@H](C)[C@@H](O)C[C@@H]1CC[C@@](C)([C@H]2CC[C@@](C)([C@@H](C)O)O2)O1 [ionomycin],ATRA-induced activity of RARE-driven luciferase reporter,[5],inhibited
KN92,K562 cell proliferation,K562 cells,did not significantly inhibit
arsenic trioxide,"activated, autophosphorylated CaMKIIγ level",[6],downregulation
